Data published in patent US20240229098A1, “BIOLUMINOGENIC ASSAY FOR DRUG-RESISTANCE BACTERIA DETECTION” (priority 2021, published 2024).

Tests used:
S. marcescens (SME) = test: Clinical isolate spiked in synthetic urine, filtered and centrifuged, S. marcescens (SME); type: cell-based; details: 10 μM D-Bluco, an hour at 37° C., PBS pH 7.4
Experimental: (§1) FIGS. 11A-11C illustrate detection of clinical isolates spiked in urine with D-Bluco a) Workflow for clinical sample detection b) Bioluminescent response for different concentrations of S. marcescens (SME) or c) E. coli/OXA-48 spiked into synthetic urine samples following the incubation with D-Bluco (10 μM) at 37° C. for an hour. Bioluminescent signal was measured and compared to that of E. coli (10^6 c.f.u/mL).
(§2) Urinary tract infection (UTI) is a severe public health problem because of the high recurrence rates and increasing antimicrobial resistance. It is among the major cause of patient morbidity and health care expenditures for both men and women of all age groups, accounting for 1 million cases of nosocomial in USA annually and an estimate cost of 1.6 billion. As a proof-of-concept, we spiked different concentrations of clinic isolates into synthetic urine samples. E. coli expressing OXA-48 and S. marcescens (SME) were chosen as examples. S. marcescens, being an opportunistic pathogen, accounts for an average of 6.5% of all Gram negative infection in intensive Care Units. The spiked urine samples were filtered and centrifuged to collect the bacteria (FIG. 11A). The collected bacteria were then diluted in PBS (pH=7.4) and incubated with 10 μM D-Bluco for an hour at 37° C.

TEM-1 = TEM-1 (Escherichia coli, UniProt P62593); test: Limit of detection of recombinant β-lactamase by bioluminescence (TEM-1); type: biochemical; parameters: made in house; details: 2 hours, room temperature; 3 SD of negative control
[1] = test system: E. coli expressing OXA-48; test: Clinical isolate spiked in synthetic urine, filtered and centrifuged, E. coli expressing OXA-48; type: cell-based, Escherichia coli; details: E. coli expressing OXA-48, 10 μM D-Bluco, an hour at 37° C., PBS pH 7.4
Experimental: as §1, §2

[2] = test system: clinically bacteria isolates in urine samples; test: RAPID BLI assay, summary for clinical bacteria isolates in urine samples; type: cell-based; details: in 30 mins
From the text: The source of the bioluminescence background emission in bioluminogenic pro-luciferin probes was investigated. In addition to trace amounts of free D-luciferin in the sample, pro-luciferin probes can be oxidized by luciferases due to the promiscuity of the enzyme […]. […] By combining BRET quenching and chemical caging, an ultrasensitive bioluminescent probe D-Bluco was developed that could detect as low as 10-18 moles of β-lactamase activity.

[3] = Stability of probe incubated with E. coli or PBS; details: incubated with Escherichia coli or PBS
AmpC = test: Limit of detection of recombinant β-lactamase by bioluminescence (AmpC); type: biochemical; details: 2 hours, room temperature; 3 SD of negative control
K. pneumoniae/KPC = test: RAPID BLI test, clinic isolate spiked into synthetic urine, K. pneumoniae/KPC; details: K. pneumoniae/KPC in synthetic urine, D-Bluco 10 μM
Experimental: (§3) The modified rapid BLI protocol is applied. The signal of D-Bluco in PBS was subtracted before plotting. The working concentration of D-Bluco was 10 μM. All the studies were duplicated at room temperature in PBS (pH=7.4). Statistical significance was calculated using the unpaired two-tailed Student's t test (** p<0.0021, *** p<0.0002, **** p<0.0001, for comparison with 10^5 cfu/mL E. coli) (** p<0.0021, **** p<0.0001, ns: not significant). RLU indicates relative light units. Dotted line represents 3SD of the negative control.
(§4) Bacteria was mixed with 0.5% CHAPS lysis buffer for 15 min, and then incubated with D-Bluco at room temperature for another 15 min. The resulted mixture was combined with assay buffer which contains MgCl2, CoA, ATP, and luciferase for immediate bioluminescent reading.
(§5) Clinic isolates representing different classes (class A: Enterobacter cloacae/IMI, E. coli/TEM, K. pneumoniae/KPC; class B: E. coli/NDM, and class C: E. cloacae/AmpC) were spiked into synthetic urine samples.

E. cloacae/AmpC = test: RAPID BLI test, clinic isolate spiked into synthetic urine, E. cloacae/AmpC; details: E. cloacae/AmpC in synthetic urine, D-Bluco 10 μM
Experimental: as §3, §4, §5

Sequence of TEM-1 (P62593 24-286 limits assumed): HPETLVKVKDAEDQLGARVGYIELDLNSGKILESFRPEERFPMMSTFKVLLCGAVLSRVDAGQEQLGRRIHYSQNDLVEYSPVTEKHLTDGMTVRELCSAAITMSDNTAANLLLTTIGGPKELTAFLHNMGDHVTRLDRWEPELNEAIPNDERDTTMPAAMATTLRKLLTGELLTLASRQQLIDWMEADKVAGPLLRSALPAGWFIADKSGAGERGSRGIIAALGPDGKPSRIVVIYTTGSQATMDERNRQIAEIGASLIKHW

With `CN(C)c1ccc(/N=N/c2ccc(C(=O)NCCCCCC(=O)NC3C(=O)N4C(C(=O)O)=C(COc5ccc6nc(C7=N[C@@H](C(=O)O)CS7)sc6c5)C[S+]([O-])C34)cc2)cc1` (stereo partly drawn) [D-Bluco, 3-(((2-((S)-4-carboxy-4,5-dihydrothiazol-2-yl)benzo[d]thiazol-6-yl)oxy)methyl)-7-(6-(4-((E)-(4-(dimethylamino)phenyl)diazenyl)benzamido)hexanamido)-8-oxo-5-thia-1-azabicyclo[4.2.0]oct-2-ene-2-carboxylic acid 5-oxide] the “concentration from which significant bioluminescence enhancement is seen” value (S. marcescens (SME)) was 10^4 c.f.u/mL, the “limit of detection (LOD) of TEM-1 (all other β-lactamases)” value (TEM-1) was 0.001 femtomole and the “concentration from which significant bioluminescence enhancement is seen” value [1] was 10^5 c.f.u/mL. The “sensitivity of RAPID BLI assay for clinical isolates in urine samples” value [2] was 10^2-10^3 cfu/mL, the “stability when incubated with E. coli or PBS” value [3] was “highly stable” and the “limit of detection (LOD) of AmpC” value (AmpC) was 0.1 femtomole. For the same compound, the “concentration detected directly without culture” value (K. pneumoniae/KPC) was 10^3 cfu/mL and the “concentration detected directly without culture” value (E. cloacae/AmpC) was 10^2 cfu/mL.
